The target in one experiment is T1, human Bub1 (Homo sapiens, UniProt O43683).
T1 construct: catalytic domain of human Bub1 (amino acids 704-1085); His6 (N); made in house; host or cells: insect cells (Hi5)
Nature of the experiment: Bub1 kinase assay (TR-FRET). The conditions noted are these: 10 μM ATP. It is filed as biochemical. An excerpt:
Bub1-inhibitory activity of compounds of the present invention was quantified employing the Bub1 TR-FRET assay as described in the following paragraphs.
N-terminally His6-tagged recombinant catalytic domain of human Bub1 (amino acids 704-1085), expressed in insect cells (Hi5) and purified by Ni-NTA affinity chromatography and subsequent size exclusion chromatography, was used as enzyme. As substrate for the kinase reaction the biotinylated peptide biotin-Ahx-VLLPKKSFAEPG (C-terminus in amid form) was used which can be purchased e.g. form the company Biosyntan (Berlin, Germany).
For the assay 50 nl of a 100 fold concentrated solution of the test compound in DMSO was pipetted into a black low volume 384 well microtiter plate (Greiner Bio-One, Frickenhausen, Germany), 2 μl of a solution of Bub1 in aqueous assay buffer [50 mM Tris/HCl pH 7.5, 10 mM magnesium chloride (MgCl2), 200 mM potassium chloride (KCl), 1.0 mM dithiothreitol (DTT), 0.1 mM sodium ortho-vanadate, 1% (v/v) glycerol, 0.01% (w/v) bovine serum albumine (BSA), 0.005% (v/v) Trition X-100 (Sigma), 1× Complete EDTA-free protease inhibitor mixture (Roche)] were added and the mixture was incubated for 15 min at 22° C. to allow pre-binding of the test compounds to the enzyme before the start of the kinase reaction. Then the kinase reaction was started by the addition of 3 μl of a solution of adenosine-tri-phosphate (ATP, 16.7 μM=>final conc. in the 5 μl assay volume is 10 μM) and substrate (1.67 μM=>final conc. in the 5 μl assay volume is 1 μM) in assay buffer and the resulting mixture was incubated for a reaction time of 60 min at 22° C. The concentration of Bub1 was adjusted depending of the activity of the enzyme lot and was chosen appropriate to have the assay in the linear range, typical concentrations were in the range of 200 ng/ml. The reaction was stopped by the addition of 5 μl of a solution of TR-FRET detection reagents (0.2 μM streptavidine-XL665 [Cisbio Bioassays, Codolet, France] and 1 nM anti-phosho-Serine antibody [Merck Millipore, cat. #35-001] and 0.4 nM LANCE EU-W1024 labeled anti-mouse IgG antibody [Perkin-Elmer, product no. AD0077, as an alternative a Terbium-cryptate-labeled anti-mouse IgG antibody from Cisbio Bioassays can be used]) in an aqueous EDTA-solution (50 mM EDTA, 0.2% (w/v) bovine serum albumin in 100 mM HEPES pH 7.5).
The resulting mixture was incubated 1 h at 22° C. to allow the formation of complex between the phosphorylated biotinylated peptide and the detection reagents. Subsequently the amount of phosphorylated substrate was evaluated by measurement of the resonance energy transfer from the Eu-chelate to the streptavidine-XL. Therefore, the fluorescence emissions at 620 nm and 665 nm after excitation at 350 nm was measured in a TR-FRET reader, e.g. a Rubystar or Pherastar (both from BMG Labtechnologies, Offenburg, Germany) or a Viewlux (Perkin-Elmer). The ratio of the emissions at 665 nm and at […] was taken as the measure for the amount of phosphorylated substrate. The data were normalised (enzyme reaction without inhibitor=0% inhibition, all other assay components but no enzyme=100% inhibition).
A general note: In TR-FRET formats the signal depends on donor and acceptor labels being close together.

Another experiment deals with T2, CDK2/CycE (Homo sapiens, UniProt P24941).
T2 construct: GST; purchased ProQinase GmbH (Freiburg, Germany); host or cells: insect cells (Sf9)
Nature of the experiment: CDK2/CycE kinase assay (TR-FRET). In kind it is biochemical. Particulars: 10 μM ATP. An excerpt:
CDK2/CycE-inhibitory activity of compounds of the present invention was quantified employing the CDK2/CycE TR-FRET assay as described in the following paragraphs.
Recombinant fusion proteins of GST and human CDK2 and of GST and human CycE, expressed in insect cells (Sf9) and purified by Glutathion-Sepharose affinity chromatography, were purchased from ProQinase GmbH (Freiburg, Germany). As substrate for the kinase reaction biotinylated peptide biotin-Ttds-YISPLKSPYKISEG (C-terminus in amid form) was used which can be purchased e.g. form the company JERINI peptide technologies (Berlin, Germany).
For the assay 50 nl of a 100 fold concentrated solution of the test compound in DMSO was pipetted into a black low volume 384 well microtiter plate (Greiner Bio-One, Frickenhausen, Germany), 2 μl of a solution of CDK2/CycE in aqueous assay buffer [50 mM Tris/HCl pH 8.0, 10 mM MgCl2, 1.0 mM dithiothreitol, 0.1 mM sodium ortho-vanadate, 0.01% (v/v) Nonidet-P40 (Sigma)] were added and the mixture was incubated for 15 min at 22° C. to allow pre-binding of the test compounds to the enzyme before the start of the kinase reaction. Then the kinase reaction was started by the addition of 3 μl of a solution of adenosine-tri-phosphate (ATP, 16.7 μM=>final conc. in the 5 μl assay volume is 10 μM) and substrate (1.25 μM=>final conc. in the 5 μl assay volume is 0.75 μM) in assay buffer and the resulting mixture was incubated for a reaction time of 25 min at 22° C. […]
The resulting mixture was incubated 1 h at 22° C. to allow the formation of complex between the phosphorylated biotinylated peptide and the detection reagents. Subsequently the amount of phosphorylated substrate was evaluated by measurement of the resonance energy transfer from the Eu-chelate to the streptavidine-XL. Therefore, the fluorescence emissions at 620 nm and 665 nm after excitation at 350 nm was measured in a TR-FRET reader, e.g. a Rubystar (BMG Labtechnologies, Offenburg, Germany) or a Viewlux (Perkin-Elmer). […]

pIC50: −log10 of the molar value.

T1 sequence (O43683 704-1085): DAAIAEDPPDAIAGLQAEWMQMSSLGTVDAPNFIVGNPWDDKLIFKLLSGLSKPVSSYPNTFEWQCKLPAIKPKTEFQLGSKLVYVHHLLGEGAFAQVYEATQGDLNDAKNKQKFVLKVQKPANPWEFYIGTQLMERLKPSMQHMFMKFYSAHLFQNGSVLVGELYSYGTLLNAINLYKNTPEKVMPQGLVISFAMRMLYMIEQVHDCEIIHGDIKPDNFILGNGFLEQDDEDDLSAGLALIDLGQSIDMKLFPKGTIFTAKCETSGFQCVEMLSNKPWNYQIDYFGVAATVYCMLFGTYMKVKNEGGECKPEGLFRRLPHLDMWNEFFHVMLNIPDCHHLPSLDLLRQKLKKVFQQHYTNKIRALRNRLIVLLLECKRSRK

The pIC50 is the IC50 on a negative log10 scale, so that one unit is a factor of ten. Lower therefore signals a large IC50. For `Cc1noc(Nc2cnc(C(F)(F)F)cn2)c1C(=O)Nc1ccc(OC2CCN(CCC(F)(F)F)CC2)nc1` [Example 1a, 3-Methyl-5-{[5-(trifluoromethyl)pyrazin-2-yl]amino}-N-(6-{[1-(3,3,3-trifluoropropyl)-piperidin-4-yl]oxy}pyridin-3-yl)-1,2-oxazole-4-carboxamide], the pIC50 on human Bub1 and at CDK2/CycE was less than 4.70 throughout.

As for `Cc1noc(Nc2cnc(C(=O)NC3CCN(CC(F)F)CC3)cn2)c1C(=O)Nc1ccc(F)c(F)c1` [Example 1b, N-[1-(2,2-Difluoroethyl)piperidin-4-yl]-5-({4-[(3,4-difluorophenyl)carbamoyl]-3-methyl-1,2-oxazol-5-yl}amino)pyrazine-2-carboxamide], the pIC50 at human Bub1 and at CDK2/CycE was less than 4.70 throughout.

`Cc1noc(Nc2cnc(C(F)(F)F)cn2)c1C(=O)Nc1ccc(F)c(F)c1` [Example 1c, N-(3,4-Difluorophenyl)-3-methyl-5-{[5-(trifluoromethyl)pyrazin-2-yl]amino}-1,2-oxazole-4-carboxamide]: the pIC50 against human Bub1 and against CDK2/CycE was less than 4.70 throughout.

These data come from US20170217946A1, “AMINO-SUBSTITUTED ISOXAZOLES” (Bayer Pharma Aktiengesellschaft, priority 2014, published 2017).
